Drawing on a melting point compilation (Tetko et al.; mined from patent text by program, amines drawn as free bases though some values may be those of a salt), this text covers melting point for 86 compounds.

Turning to `COc1ccc(C2=C(c3ccc(S(N)(=O)=O)cc3)CCC2)cc1F`, the melting point lay in the range of 170 to 171 °C.
For `Cc1nn(CC(F)(F)COC(=O)CN)c(-c2ccc(F)cc2)c1-c1ccc2c(c1)NC(=O)CO2` the value was 142 to 146 °C; for `COc1cccc(C2CCCN(C(=O)Cc3cc4ccccc4o3)C2)c1` (stereo unspecified), 175 to 176 °C; for `CCN1C(=O)CC(C(=O)O)C1c1c(Cl)cccc1Cl` (stereo unspecified), 195 to 197 °C.
With `O=C1N(Cc2ccc(C(F)(F)F)o2)c2cccc(Cl)c2C12COc1cc3c(cc12)CCO3` (stereo unspecified), the melting point lay in the range of 166 to 169 °C.
The result for `CN1CCC(OC2c3cccc(Cc4ccccc4)c3CCn3cc(-c4ccccc4)nc32)CC1` (stereo unspecified) reads 66 °C; that for `COC(=O)c1cc([N+](=O)[O-])c(C(C)(C)C)c([N+](=O)[O-])c1`, 115 to 117 °C; that for `CN(C)C(N)=Nc1cc(S(C)=O)ccc1N1CCOCC1` (stereo unspecified), 160 to 161 °C.
For `CCCNC(=O)c1cnc2cccc(C)n2c1=O` the value was 158 to 160 °C.
`CC(C)NC(=O)C1=C(C(=O)Nc2ccc(Cl)cc2F)CCCC1` gave a melting point of 188 to 189 °C.
The result for `CCOC(=N)c1cccc(Cc2ccccc2)c1` reads 121 to 122 °C; that for `O=C1OC(=O)c2cc(Oc3ccc(-c4ccccc4)cc3)ccc21`, 199 °C; that for `N#Cc1ccc(NS(=O)(=O)c2ccc(Cl)cc2)c([N+](=O)[O-])c1`, 193 to 195 °C.
The result for `COC(=O)c1cc2cc(OCc3cccnc3)ccc2s1` reads 126 to 127 °C; that for `CCOC(OCC)c1c(C#N)cnn1-c1cc(SC)n(C)n1`, 154 to 158 °C; that for `Clc1ccc(C(=Cc2ccccc2Cl)Cn2cncn2)cc1`, 106 to 110 °C.
The result for `CC1(C)CON(Cc2ccc(NC(=O)Cc3ccccc3C(=O)O)cc2Cl)C1=O` reads 194 to 196 °C; that for `Cc1nc2c3c(c(C(=O)N(C)C)cc2n1C)CCC1(Cc2ccccc2C1)N3`, 178 to 179 °C.
Take `O[C@@H]1[C@H](O)[C@H](O)CO[C@H]1n1c(Br)nc2cc(Cl)c(Cl)cc21`: the melting point was 164 to 165 °C.
The result for `O=C(COc1ccc(-c2ccccc2)cc1Br)c1ccccc1` reads 93 to 95 °C; that for `NC(=O)c1nnn(Cc2cc(Cl)c(S(=O)c3ccc(Cl)cc3)c(Cl)c2)c1N` (stereo unspecified), 195 to 197 °C.
The result for `CCOC(=O)c1cnc2c3ccccc3ccn2c1=N` reads 197 to 199 °C; that for `NC1=NC(c2ccc(OC(F)F)cc2)(c2cccc(-c3cccnc3F)c2)C2=NCC3(CCC3)CN12` (stereo unspecified), 220 to 226 °C; that for `COCCOc1ccc(CCCOC(=O)NS(=O)(=O)NCCc2cccs2)c(Oc2ncc(C(F)(F)F)cc2Cl)c1`, 118 °C.
The result for `CCC1(CC(=O)O)OCC(Cc2ccccc2)c2c1[nH]c1ccccc21` (single isomer, unassigned; (-)) reads 142 to 143 °C; that for `CCn1ncc(C(=O)c2ccc(S(C)(=O)=O)c(-c3ccccc3C)c2C)c1O`, 179 to 180 °C.
In the case of `COC(=O)c1ccc(CC(C=O)c2cc(C(=O)OC)ccc2[N+](=O)[O-])c(OC)c1` (stereo unspecified), the melting point fell in the range of 117 to 120 °C.
The result for `O=C(O)CCCN1C(=O)c2ccc([N+](=O)[O-])cc2C1=O` reads 176 to 178 °C; that for `Nc1ccc2c(c1)N(C1CCN(CCc3ccc(F)cc3)CC1)CC2`, 104 to 106 °C.
The result for `CC(=O)Nc1cc(C(C)=O)ccc1OCCCN1CCC(c2noc3cc(F)ccc23)CC1` reads 108 to 110 °C; that for `CN1CCN(c2nc(Nc3cccc(NS(C)(=O)=O)c3)nc3[nH]cnc23)CC1`, 148 to 151 °C; that for `COC(=O)C(C)(C(=O)OC)C(C[N+](=O)[O-])c1ccccc1` (stereo unspecified), 130 to 132 °C.
The result for `CCNC(=O)Nc1nc2cc(-c3cnc(N(C)C)nc3)cc(C(=O)NCC)n2n1` reads 328 to 334 °C; that for `NS(=O)(=O)c1ccc(C2=C(c3ccc(Cl)cc3)CCC2)cc1`, 177 to 178 °C; that for `CC(C)CN1CCC(c2ccc(Br)cc2)CC1`, 36 to 37 °C.
For the compound `Cc1cn(-c2nc(C)cc3[nH]c(=O)ccc23)cn1`, the melting point lay in the range of 307 to 308 °C.
The result for `CCN1C(=O)C(C)(C)c2ccc(C(=O)Nc3ccc(F)cc3)cc21` reads 179 to 181 °C; that for `NC(=O)c1nc2cc(F)c([N+](=O)[O-])cc2[nH]c1=O`, > 300 °C; that for `FC(F)(F)C=NNc1c(Cl)cc(C(F)(F)F)cc1Cl`, 45 to 46 °C.
The result for `Cc1cc2c(-c3ccccc3)c(CN)n(C)c(=O)c2cc1C` reads 163 to 165 °C; that for `COc1ccccc1NC(=O)Nc1nc(NCc2cccs2)nc(N(CCC(=O)O)Cc2cccc(C)c2)n1`, 89 to 95 °C; that for `CCOC(=O)C1=C(C)NC(C)=C(C(=O)OCC)C1c1csc2ccccc12`, 139 to 142 °C.
As to `COc1cc2c(c(Cl)c1Cl)C(=O)C(c1ccccc1)C2` (stereo unspecified), the melting point fell in the range of 187 to 192 °C.
`CCCCOc1ccc(C(=O)N2CCCCc3sccc32)cc1` displayed a melting point of 87 to 90 °C.
For `ON=CCc1ccccc1`, the melting point is 90 to 94 °C.
For `CON1C(=O)CC2(CCN(CCNC(=O)c3cccnc3)CC2)C1=O` the value was 112 to 119 °C.
For `COc1cc2c(cc1Nc1ncc(Cl)c(N[C@H]3[C@@H](C(N)=O)[C@@H]4C=C[C@H]3C4)n1)CCN(CC(C)O)CC2` (stereo partly specified), the melting point was determined as 120 °C.
The result for `Cc1cccc(Cl)c1CO` reads 83 to 86 °C; that for `Cc1ccc2oc([N+](=O)[O-])c(-c3ccccc3)c2c1`, 144 to 146 °C; that for `COC(=O)CNc1cccc(CF)c1`, 47 to 47.5 °C.
In turn, `CCOc1cc2c(cc1OCC)C(=C(C#N)SCC(CN1CCOCC1)OC(C)=O)NCC2` (stereo unspecified) returned a melting point of 133 °C.
For `COC(=O)c1ccc(C)cc1N(C)S(C)(=O)=O` the value was 100 to 103 °C; for `Cc1noc(NS(=O)(=O)c2c(Cc3ccc4c(c3)OCO4)sc3ccccc23)c1C`, 135 to 137 °C.
The result for `CC(C)(C)OC(=O)N1C[C@@H]2OCc3c(-c4ccccc4)nnn3[C@H]2C1` reads 236 to 237 °C.
With `N#CN=C(Nc1cccnc1)NC1CC1`, the melting point was in the range of 171 to 172 °C.
The result for `CS(=O)(=O)NC(c1ccccc1)c1ccccc1` reads 148 to 150 °C; that for `COc1ccc(C2=NN(Cc3ccccc3)C(=O)[C@H]3CCCC[C@@H]23)cc1OC1CCCC1` (relative stereo), 91 to 92 °C.
The result for `COc1ccc(-c2ccc(-c3cc(NC(Cc4ccccc4)C(=O)O)ncn3)cc2)cc1` (stereo unspecified) reads 123 to 125 °C; that for `C#CC1=Cc2ccccc2Sc2ccc(S(C)(=O)=O)cc21`, 140 to 143 °C; that for `COc1cc(OC)nc(-c2c(N)n(S(=O)(=O)C(F)F)c3ccccc23)n1`, 156 to 158 °C.
For `CC(=O)CCCc1ccc(S(N)(=O)=O)s1` the value was 54 to 57 °C.
Turning to `CCOC(=O)c1sc2cc(OCc3ccccc3)ccc2c1S(=O)c1ccccc1` (stereo unspecified), the melting point lay in the range of 141 to 142 °C.
For `CCOc1cc(OCC2CCN(C)CC2)c(F)c(C(Nc2ccc(C(=N)N)cc2)C(=O)O)c1` (racemic) the value was 232 °C.
For `CC(C)(C)OC(=O)N[C@@H](COCc1ccccc1)C(=O)N[C@H](CCC(=O)OCc1ccccc1)C(N)=O` the value was 65 to 66 °C; for `Cn1nnnc1SCC1=NCCc2cc(OCc3ccccc3)c(OCc3ccccc3)cc21`, 146 to 148 °C.
The compound `COP(=O)(OC)C(CCc1cc(C)nc2c(C#N)c(C)nn12)P(=O)(OC)OC` came in with a melting point of 100 to 101 °C.
The result for `N#Cc1c(N)nc2ccccc2c1NCc1ccco1` reads 206 °C; that for `O=C(O)CCn1c(=O)c2ccccc2n(CCCCN2CCC(OC(c3ccccc3)c3ccccc3)CC2)c1=O`, 107 to 108 °C; that for `O=C(NCc1ccc(Cl)cc1)c1cnc2ccc(CO)cc2c1O`, 288 to 289 °C.
The result for `CC(C)(C)OC(=O)N[C@@]1(C(=O)OC(C)(C)C)CC(=O)[C@H]2[C@H](C(=O)OC(C)(C)C)[C@H]21` reads 144 to 146 °C; that for `Cc1cccc(C(=O)c2[nH]c3cc(Cl)ccc3c2NC(=O)N(C)C)c1`, 198 to 200 °C.
The result for `CNCC(=O)Nc1ccc(C2=NN(C(C)=O)C(C)Cc3cc4c(cc32)OCO4)cc1` (stereo unspecified) reads 220 to 222 °C.
The compound `Cc1cc(-c2c(F)c(F)c3c(=O)c(C(=O)O)cn4c3c2OC[C@@H]4C)cc(C)n1` had a melting point of 307 to 310 °C.
In the case of `COc1ccc(-c2ccccc2)cc1N1CCN(C(=O)Nc2cc3ccccc3nc2OC)CC1`, the melting point lay within 122 to 123 °C.
`CCCCCc1cc2c(nc(O)n2CCCNS(C)(=O)=O)c(N)n1`: the melting point is 174 to 176 °C.
`COc1cccc(CS(=O)c2nc3cnccc3[nH]2)c1` (stereo unspecified) gave a melting point of 176 to 179 °C.
The result for `CC#CCOc1ccc(S(=O)(=O)N(C)C2(C(=O)O)CCCCC2)cc1` reads 124 to 126 °C; that for `NS(=O)(=O)c1ncccc1C(=O)OC1COC1`, 140 to 142 °C; that for `CC(=O)Nc1c(C)cc2c(nc3n2CCC3)c1[N+](=O)[O-]`, 198 °C.
The result for `CC(=O)N1c2ccccc2-c2c(N)cnn2C1C` (stereo unspecified) reads 170 to 172 °C; that for `COC(=O)c1ccc(CCNCC(O)c2ccccc2)cc1` (stereo unspecified), 105 to 106 °C.
With `CSc1ncc2cc(Oc3ccc(F)cc3F)c(NC(=O)NC(C)(C)C)nc2n1`, the melting point is 195 to 201 °C.
The result for `CCN(CC)CCc1cccc(Nc2ncc3c(n2)N(c2cccc(C#N)c2)C(=O)N(c2ccc(OC)cc2)C3C)c1` (stereo unspecified) reads 128 to 145 °C.
For `CCOC(=O)c1c(CCN(CC)CC)nc2cc(OC)c(OC)cc2c1-c1ccc(OC)c(OC)c1` the value was 76 to 78 °C; for `CN1Cc2cncn2-c2ccc(F)cc2C1=O`, 236 °C.
For the compound `CCCOc1cc2ccccc2c2c(=O)c(-c3ccoc3)cn(C)c12`, the melting point is 165 to 167 °C.

For orientation: melting point means the temperature of the solid-liquid transition.
